The conditions of data set [1]: statement with literature citation; cited from earlier work.
The test system of data set [2] is PI3K pathway signaling (pAKT, pS6RP, p4EBP1), Ki67 and cleaved caspase-3 in DF-BM355 tumors. The experiment in a line: Pharmacodynamic IHC / Western blot analysis of treated DF-BM355 tumors. To be noted: IHC after 4 days of treatment. On the technique in general: In western blotting, separated proteins are transferred to a membrane and probed.
Procedure: Diaminobenzidine (DAB), brightfield staining was performed according to standard protocols using DAB EnVision+™ System (Dako) on paraffin sections. Briefly five micron thick sections were deparaffinized with xylene, followed by gradation washes in 100%, 95%, 80% ethyl alcohol before performing heat antigen retrieval in 10 mM sodium citrate buffer (pH 6.0) for 20 minutes. Subsequently, sections were treated with peroxidase block (Dako) for ten minutes followed by overnight incubation at 4° C. with the following primary antibodies: polyclonal PTEN (Cell Signaling #9559), pS6RP-Ser235/236 (Cell Signaling #2211), p4EBP1-Thr37/46 (Cell Signaling #2855), or cleaved caspase-3 (Cell Signaling #9664) from Cell Signaling; estrogen receptor (ER) (ThermoScientific SP1) or HER2 (ThermoScientific SP3) from ThermoScientific; or progesterone receptor (PR) (Dako PgR 636), CK7 (Dako), GFAP (Dako #z0334), OLIG2 (Dako), or monoclonal mouse anti-Ki67 (Dako MIB-1 or Vector lab #VP K-451) from Dako or Vector lab. […]
Ki67 and cleaved caspase-3 indexes were calculated as a percentage of positive cells in 4-5 random areas of each sample. Images were captured at 40× or 60× magnification and quantifications of Ki67 and cleaved caspase-3 immunoreactivity were performed using the ImmunoRatio plugin provided in the Image J software. […]
Data set [3] has as its system DF-BM354. The experiment in a line: In vivo treatment of orthotopic HER2-positive BCBM patient-derived xenograft DF-BM354 (bioluminescence imaging, survival). As to conditions: BKM120 PO 30 mg/kg QD; RAD001 PO 7.5 mg/kg QD; MEK162 PO 15 mg/kg; GNE-317 PO 40 mg/kg QD. Set-up: species or system mice. As for the experimental part: Luciferase-expressing tumors were then propagated in mice.
The signals were analyzed with CareStream MI Software.
All compounds were purchased from Haoyuan ChemExpress Co.
GNE-317 obtained from Genetcch was dissolved in 0.5% methylcellulose/0.2% Tween 80 and given oral once/day at 40 mg/kg.
On the technique in general: Xenograft models place foreign cells or tissue in a host animal.

On to `Nc1cc(C(F)(F)F)c(-c2cc(N3CCOCC3)nc(N3CCOCC3)n2)cn1` [BKM120, 5-(2,6-dimorpholin-4-ylpyrimidin-4-yl)-4-(trifluoromethyl)pyridin-2-amine], for which the blood-brain barrier penetration entry in data set [1] is recorded as “permeates the blood-brain barrier”. The “number of Ki67-positive cells (cell proliferation) in DF-BM355 tumors” value in data set [2] is listed as “did not decrease”. The “therapeutic response / tumor growth of DF-BM354 (bioluminescence imaging, survival)” value (“therapeutic response / tumor growth” below) in data set [3] is “neither BKM120 nor RAD001 monotherapy had meaningful effects”.
On to `COC1(c2sc3c(N4CCOCC4)nc(-c4cnc(N)nc4)nc3c2C)COC1` [GNE-317, 5-(6-(3-methoxyoxetan-3-yl)-7-methyl-4-morpholinothieno[3,2-d]pyrimidin-2-yl)pyrimidin-2-amine], for which the blood-brain barrier penetration result in data set [1] is listed as “effectively crossing the blood brain barrier”. Moreover, the “therapeutic response / tumor growth” value in data set [3] was “marked regression”.
For the compound `CO[C@H]1C[C@@H]2CC[C@@H](C)[C@@](O)(O2)C(=O)C(=O)N2CCCC[C@H]2C(=O)O[C@H]([C@H](C)C[C@@H]2CC[C@@H](OCCO)[C@H](OC)C2)CC(=O)[C@H](C)/C=C(\C)[C@@H](O)[C@@H](OC)C(=O)[C@H](C)C[C@H](C)/C=C/C=C/C=C/1C` [RAD001], in data set [1], the blood-brain barrier penetration entry was “demonstrated blood-brain barrier (BBB) penetrance”. In addition, the “therapeutic response / tumor growth” value in data set [3] is “neither BKM120 nor RAD001 monotherapy had meaningful effects”.

Source of the values: patent US11318139B2, “Methods for treating brain metastases using combinations of anti-P13K and anti-mTOR agents” (Dana-Farber Cancer Institute, Inc., priority 2016, dated 2022).
